The source of these data is patent US7935687B2, “Methods for treating spinal muscular atrophy using tetracycline compounds” (Paratek Pharmaceuticals, Inc., priority 2007, dated 2011).

One data set concerns S. aureus (SA RN450). In words: Antibacterial MIC, gram positive. In kind it is cell-based. As to conditions: CLSI methodology, 35° C., 18-24 hours.
Another data set concerns E. coli (EC D1-209). Briefly: Antibacterial MIC, gram negative. The class given is cell-based. As to conditions: CLSI methodology, 35° C., 18-24 hours.
Data set [1] is described as follows: Brain-penetrating ability, brain:plasma ratio. In kind it is in vivo, Male CD1 mice. Conditions: iv; for Ratio of Brain to Plasma Levels (at T = 3 hours, %): mouse, in vivo, 5 mg/kg. The method, then: Male CD1 mice were administered various tetracycline compounds (i.v. at a dose of 5 mg/kg). After 15 minutes, 1 hour and 3 hours post-dose, 3 mice were sacrificed, exsanguinated, and brains harvested and snap frozen. Blood was centrifuged and the plasma removed and frozen.

The subject of another data set is SMN2 mRNA. In words: In vitro cell-free splicing assay for inclusion of exon 7. In kind it is biochemical. As to conditions: HeLa cell nuclear extract, 30° C., 3 hours. The gist of the method: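 ^32P-labelled SMN2 minigene pre-mRNA (exon 6 to part of exon 8; 10 fmol) spliced 3 h at 30 °C in 30% HeLa nuclear extract with 0.5 mM ATP, 1.56 mM MgCl2, pH 7.4, plus compound or buffer. Exon 7 inclusion quantified by denaturing PAGE and phosphorimaging. Emax is maximal % inclusion and Cmax the lowest concentration (μM) reaching it, reported as binned grades.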

The test system of data set [2] is 3813 SMA patient-derived fibroblast cells. In words: In vitro gems assay. The class given is cell-based, Human. Conditions: 1 mM, SMA patient line. As for the experimental part: The following example illustrates how tetracycline compound of the invention increase gems in vitro. A glass cover slide was added into each well of 6 well plates and 1×10^4 cells (3813 SMA patient-derived fibroblast cells or 3814 unaffected family member-derived fibroblast cells) in 2 mL were added. After approximately 6 hours, the medium was changed and the desired compound was added to the appropriate well at indicated concentrations. After 12 hours, the medium was changed and the desired compound was added to the appropriate well again. After 24 hours, one set of slides was fixed and the medium was changed and the desired compound was added to the appropriate well again. After 36 hours, the medium was changed and the desired compound was added to the appropriate well again. Another set of cells were fixed on the slides at 48 hours.
Immunofluorescence staining of the cells was performed by washing the cells 2 times with PBS (phosphate buffered saline) and fixing the cells on slides in 4% paraformaldehyde for 10 minutes on ice. The cells were washed 3 times for 5 minutes with PBS, then were permeabilized on the cover slip with 0.2% TritonX, 0.5% BSA in PBS and incubated for 5 minutes on ice. […] The cells were again washed 2 times for five minutes with PBS, mounted on slides with Molecular Probes Prolong Antifade kit, dried and analyzed with Axioskop widefield fluourescence microscope.

Molecules are shown by their SMILES. A value given as a limit tells only on which side of the number the result lay.

As to `CN(C)C1C(O)=C(C(N)=O)C(=O)C2(O)C(O)=C3C(=O)c4c(O)ccc(-c5cccc(CCCN6CCCCC6)c5)c4CC3CC12` (stereo not shown) [BN], in the data set with S. aureus (SA RN450), the “MIC Gram Positive (SA RN450)” value is “*** (Good antibacterial activity (e.g., less than about 4 μg/mL))”. In the data set on E. coli (EC D1-209), the “MIC Gram Negative (EC D1-209)” value is “** (modest antibacterial activity (between about 4 and 8 μg/mL))”. The “Ratio of Brain to Plasma Levels (at T = 3 hours, %)” value in data set [1] is on record as 41.6%. For the same molecule, in the data set on SMN2 mRNA, the “Cmax (lowest compound concentration at which the maximum exon 7 inclusion occurs)” value (shortened to “Cmax”) was “*** (concentrations of less than 10 μM)” and the “Emax (maximum percentage exon 7 inclusion observed)” value is listed as “*** (values greater than 20%)”.
With `COCCN(C)CC(=O)c1ccc(O)c2c1CC1CC3C(N(C)C)C(O)=C(C(N)=O)C(=O)C3(O)C(O)=C1C2=O` (stereo not shown) [BO], the “MIC Gram Positive (SA RN450)” value in the data set with S. aureus (SA RN450) is “*** (Good antibacterial activity (e.g., less than about 4 μg/mL))”. For the same molecule, the “MIC Gram Negative (EC D1-209)” value with E. coli (EC D1-209) is recorded as “* (weak antibacterial activity (greater than about 8 μg/mL))”. Besides, the “Ratio of Brain to Plasma Levels (at T = 3 hours, %)” value in data set [1] is listed as 50.7%.
Usually MIC stands for the smallest concentration in the dilution series that meets the test's criterion for growth inhibition. Read a low MIC as inhibition by little substance. In the case of `CN(C)CC(=O)Nc1cccc(-c2ccc(O)c3c2C[C@H]2C[C@H]4[C@H](N(C)C)C(O)=C(C(N)=O)C(=O)[C@@]4(O)C(O)=C2C3=O)c1` [Compound K, (4S,4aS,5aR,12aS)-4-Dimethylamino-7-[3-(2-dimethylamino-acetylamino)-phenyl]-3,10,12,12a-tetrahydroxy-1,11-dioxo-1,4,4a,5,5a,6,11,12a-octahydro-naphthacene-2-carboxylic Acid Amide], in the data set on S. aureus (SA RN450) (Staphylococcus aureus), the minimum inhibitory concentration (MIC) is below 4 µg/mL. In the data set on E. coli (EC D1-209) (Escherichia coli), the MIC is above 8 µg/mL. Besides, in the data set on SMN2 mRNA, the “Cmax” value is listed as “* (concentrations of greater than 40 μM)” and the “Emax (maximum percentage exon 7 inclusion observed)” value was “* (percentage inclusion values of less than 10%)”.
With `CN(C)CCCC(=O)Nc1cccc(-c2ccc(O)c3c2CC2CC4C(N(C)C)C(O)=C(C(N)=O)C(=O)C4(O)C(O)=C2C3=O)c1` (stereo not shown) [Compound Q], the “MIC Gram Positive (SA RN450)” value against S. aureus (SA RN450) is given as “*** (Good antibacterial activity (e.g., less than about 4 μg/mL))”. Moreover, the “MIC Gram Negative (EC D1-209)” value against E. coli (EC D1-209) is reported as “* (weak antibacterial activity (greater than about 8 μg/mL))”. For the same molecule, in the data set on SMN2 mRNA, the “Cmax” value was “*** (concentrations of less than 10 μM)” and the “Emax (maximum percentage exon 7 inclusion observed)” value is recorded as “** (values of 10-20%)”.
In the case of `CN(C)CCCNC(=O)c1cccc(-c2ccc(O)c3c2CC2CC4C(N(C)C)C(O)=C(C(N)=O)C(=O)C4(O)C(O)=C2C3=O)c1` (stereo not shown) [J], in the data set with S. aureus (SA RN450), the “MIC Gram Positive (SA RN450)” value is “*** (Good antibacterial activity (e.g., less than about 4 μg/mL))”. Besides, the “MIC Gram Negative (EC D1-209)” value in the data set with E. coli (EC D1-209) is “* (weak antibacterial activity (greater than about 8 μg/mL))”. Besides, in the data set on SMN2 mRNA, the “Cmax” value was “*** (concentrations of less than 10 μM)” and the “Emax (maximum percentage exon 7 inclusion observed)” value was “** (values of 10-20%)”.
On to `COCCNC(=O)c1cccc(-c2ccc(O)c3c2CC2CC4C(N(C)C)C(O)=C(C(N)=O)C(=O)C4(O)C(O)=C2C3=O)c1` (stereo not shown) [L], for which the “MIC Gram Positive (SA RN450)” value in the data set with S. aureus (SA RN450) is recorded as “*** (Good antibacterial activity (e.g., less than about 4 μg/mL))”. Further, in the data set with E. coli (EC D1-209), the “MIC Gram Negative (EC D1-209)” value is recorded as “* (weak antibacterial activity (greater than about 8 μg/mL))”. Also, in the data set with SMN2 mRNA, the “Cmax” value is “* (concentrations of greater than 40 μM)” and the “Emax (maximum percentage exon 7 inclusion observed)” value was “** (values of 10-20%)”.
Regarding `CNCCNC(=O)c1cccc(-c2ccc(O)c3c2CC2CC4C(N(C)C)C(O)=C(C(N)=O)C(=O)C4(O)C(O)=C2C3=O)c1` (stereo not shown) [M], in the data set on S. aureus (SA RN450), the “MIC Gram Positive (SA RN450)” value is “** (modest antibacterial activity (between about 4 and 8 μg/mL))”. For the same molecule, the “MIC Gram Negative (EC D1-209)” value with E. coli (EC D1-209) was “* (weak antibacterial activity (greater than about 8 μg/mL))”. Further, in the data set with SMN2 mRNA, the “Cmax” value is “** (concentrations between 40 and 10 μM)”; the “Emax (maximum percentage exon 7 inclusion observed)” value was “*** (values greater than 20%)”.
Regarding `CN(C)c1ccc(O)c2c1C[C@H]1C[C@H]3[C@H](N(C)C)C(O)=C(C(N)=O)C(=O)[C@@]3(O)C(O)=C1C2=O` [Minocycline, minocycline, reference compound], in data set [1] (male, CD1, mouse, brain and plasma, i.v. 5 mg/kg, 3 hours post-dose, read-out: Ratio of Brain to Plasma Levels (at T = 3 hours, %)), the Kp at 3 h stood at 1.28.
`CN(C)C1C(O)=C(C(N)=O)C(=O)C2(O)C(O)=C3C(=O)c4c(O)ccc(-c5cccc(C(=O)NCCN)c5)c4CC3CC12` (stereo not shown) [N]: in the data set with S. aureus (SA RN450), the “MIC Gram Positive (SA RN450)” value is given as “*** (Good antibacterial activity (e.g., less than about 4 μg/mL))”. Moreover, the “MIC Gram Negative (EC D1-209)” value in the data set with E. coli (EC D1-209) is “* (weak antibacterial activity (greater than about 8 μg/mL))”. Further, in the data set with SMN2 mRNA, the “Cmax” value is “** (concentrations between 40 and 10 μM)”; the “Emax (maximum percentage exon 7 inclusion observed)” value is reported as “** (values of 10-20%)”.
On to `CCN(CC)CCNC(=O)c1cccc(-c2ccc(O)c3c2CC2CC4C(N(C)C)C(O)=C(C(N)=O)C(=O)C4(O)C(O)=C2C3=O)c1` (stereo not shown) [O], for which the “MIC Gram Positive (SA RN450)” value with S. aureus (SA RN450) is “** (modest antibacterial activity (between about 4 and 8 μg/mL))”. The “MIC Gram Negative (EC D1-209)” value with E. coli (EC D1-209) was “* (weak antibacterial activity (greater than about 8 μg/mL))”. In the data set with SMN2 mRNA, the “Cmax” value is “** (concentrations between 40 and 10 μM)”; the “Emax (maximum percentage exon 7 inclusion observed)” value is on record as “* (percentage inclusion values of less than 10%)”.
In the case of `CN(C)CCCNC(=O)c1cccc(-c2ccc(O)c3c2CC2CC4C(N(C)C)C(O)=C(C(N)=O)C(=O)C4(O)C(O)=C2C3=O)c1` (stereo not shown) [P], the “MIC Gram Positive (SA RN450)” value in the data set on S. aureus (SA RN450) was “** (modest antibacterial activity (between about 4 and 8 μg/mL))”. In addition, in the data set on E. coli (EC D1-209), the “MIC Gram Negative (EC D1-209)” value is recorded as “* (weak antibacterial activity (greater than about 8 μg/mL))”. Also, in the data set on SMN2 mRNA, the “Cmax” value is “** (concentrations between 40 and 10 μM)”; the “Emax (maximum percentage exon 7 inclusion observed)” value is given as “** (values of 10-20%)”.
Regarding `CC(=O)NCCNC(=O)c1cccc(-c2ccc(O)c3c2CC2CC4C(N(C)C)C(O)=C(C(N)=O)C(=O)C4(O)C(O)=C2C3=O)c1` (stereo not shown) [S], the “MIC Gram Positive (SA RN450)” value in the data set with S. aureus (SA RN450) was “*** (Good antibacterial activity (e.g., less than about 4 μg/mL))”. For the same molecule, the “MIC Gram Negative (EC D1-209)” value against E. coli (EC D1-209) is recorded as “* (weak antibacterial activity (greater than about 8 μg/mL))”. Also, in the data set on SMN2 mRNA, the “Cmax” value was “* (concentrations of greater than 40 μM)” and the “Emax (maximum percentage exon 7 inclusion observed)” value is “** (values of 10-20%)”.
For the molecule `CC(C)N(CCNC(=O)c1cccc(-c2ccc(O)c3c2CC2CC4C(N(C)C)C(O)=C(C(N)=O)C(=O)C4(O)C(O)=C2C3=O)c1)C(C)C` (stereo not shown) [T], the “MIC Gram Positive (SA RN450)” value against S. aureus (SA RN450) was “*** (Good antibacterial activity (e.g., less than about 4 μg/mL))”. In the data set with E. coli (EC D1-209), the “MIC Gram Negative (EC D1-209)” value is “* (weak antibacterial activity (greater than about 8 μg/mL))”. Besides, in the data set on SMN2 mRNA, the “Cmax” value was “** (concentrations between 40 and 10 μM)”; the “Emax (maximum percentage exon 7 inclusion observed)” value is on record as “** (values of 10-20%)”.
`CN(C)C1C(O)=C(C(N)=O)C(=O)C2(O)C(O)=C3C(=O)c4c(O)ccc(-c5cccc(C(=O)NCCN6CCCCC6)c5)c4CC3CC12` (stereo not shown) [U]: the “MIC Gram Positive (SA RN450)” value in the data set with S. aureus (SA RN450) is “*** (Good antibacterial activity (e.g., less than about 4 μg/mL))”. Moreover, the “MIC Gram Negative (EC D1-209)” value against E. coli (EC D1-209) was “** (modest antibacterial activity (between about 4 and 8 μg/mL))”. For the same molecule, in the data set with SMN2 mRNA, the “Cmax” value was “** (concentrations between 40 and 10 μM)”; the “Emax (maximum percentage exon 7 inclusion observed)” value is “** (values of 10-20%)”.
On to `CN(C)C1C(O)=C(C(N)=O)C(=O)C2(O)C(O)=C3C(=O)c4c(O)ccc(-c5cccc(C(=O)NCc6ccco6)c5)c4CC3CC12` (stereo not shown) [Y], for which, in the data set with S. aureus (SA RN450), the “MIC Gram Positive (SA RN450)” value is given as “*** (Good antibacterial activity (e.g., less than about 4 μg/mL))”. Moreover, the “MIC Gram Negative (EC D1-209)” value with E. coli (EC D1-209) is reported as “* (weak antibacterial activity (greater than about 8 μg/mL))”. Further, in the data set with SMN2 mRNA, the “Cmax” value is listed as “* (concentrations of greater than 40 μM)” and the “Emax (maximum percentage exon 7 inclusion observed)” value is listed as “** (values of 10-20%)”.
On to `CCCC(CCC)C(=O)O` [valproic acid], for which the “increase in the number of gems/100 cells” value in data set [2] stood at 1.7 fold.
